The values below come from patent publication US11088380B2, “Electrolyte solution for redox flow battery and redox flow battery comprising same” (Seoul National University R&DB Foundation, priority 2013, dated 2021).

As usually defined, the solubility is how much of the substance goes into solution per volume.

Values after ≈ are worked out from the molar mass of the structure shown.

The first data set is described as follows: physchem.
Settings: not given
As to the method: Menadione purchased from Sigma Aldrich was dissolved in propylene carbonate solution comprising tetrafluoroborate tetraethylammonium and the maximum amount of Menadione that can be dissolved was checked.
1,4-Naphthoquinone purchased from Sigma Aldrich was dissolved in propylene carbonate solution comprising tetrafluoroborate tetraethylammonium and the maximum amount of 1,4-Naphthoquinone that can be dissolved was checked.
N,N,N′N′-tetramethyl-p-phenylenediamine purchased from Alfa aesar was dissolved in propylene carbonate solution comprising tetrafluoroborate tetraethylammonium and the maximum amount of N,N,N′N′-tetramethyl-p-phenylenediamine that can be dissolved was checked.
Tetrathiafulvalene purchased from Sigma Aldrich was dissolved in propylene carbonate solution comprising tetrafluoroborate tetraethylammonium and the maximum amount of tetrathiafulvalene that can be dissolved was checked.
N,N-dimethyl-p-phenylenediamine purchased from Sigma Aldrich was dissolved in propylene carbonate solution comprising tetrafluoroborate tetraethylammonium and the maximum amount of N,N-dimethyl-p-phenylenediamine that can be dissolved was checked.
Triphenylamine purchased from Sigma Aldrich was dissolved in propylene carbonate solution comprising tetrafluoroborate tetraethylammonium and the maximum amount of triphenylamine that can be dissolved was checked.
4-Hydroxydiphenylamine purchased from Sigma Aldrich was dissolved in propylene carbonate solution comprising tetrafluoroborate tetraethylammonium and the maximum amount of 4-hydroxydiphenylamine that can be dissolved was checked.
4-Amino-diphenylamine purchased from Sigma Aldrich was dissolved in propylene carbonate solution comprising tetrafluoroborate tetraethylammonium and the maximum amount of 4-amino-diphenylamine that can be dissolved was checked.
Thianthrene purchased from Aldrich was dissolved in propylene carbonate solution comprising tetrafluoroborate tetraethylammonium and the maximum amount of thianthrene that can be dissolved was checked.
Molecule `C1=CSC(=C2SC=CS2)S1` [Example 5, Tetrathiafulvalene] showed a solubility of 600 mM (≈ 123 mg/mL). `Nc1ccc(Nc2ccccc2)cc1` [Example 9, 4-amino-diphenylamine] returned a solubility of 4000 mM (≈ 737 mg/mL).

Still in this data set, the particulars now being: maximum amount dissolved in propylene carbonate solution comprising tetrafluoroborate tetraethylammonium.
As to `Oc1ccc(Nc2ccccc2)cc1` [Example 8, 4-hydroxydiphenylamine], the solubility was determined as 4000 mM (≈ 741 mg/mL).

Take `CN(C)c1ccc(N(C)C)cc1` [Example 4, N,N,N′N′-tetramethyl-p-phenylenediamine]: the solubility is 2000 mM (≈ 329 mg/mL).

Staying with this data set, now noted: organic solvent or mixture, thermodynamic from solid.
`CN(C)c1ccc(N)cc1` [Example 6, N,N-dimethyl-p-phenylenediamine]: the solubility turned out to be 2000 mM (≈ 272 mg/mL). As to `c1ccc2c(c1)Sc1ccccc1S2` [Comparative example 2, Thianthrene, reference compound], the solubility came out at 100 mM (≈ 21.6 mg/mL).

Consider `CC1=CC(=O)c2ccccc2C1=O` [Example 2, menadione], for which the solubility is 300 mM (≈ 51.7 mg/mL). In the case of `O=C1C=CC(=O)c2ccccc21` [Example 3, 1,4-Naphthoquinone], the solubility worked out at 500 mM (≈ 79.1 mg/mL). On the same count and under the same terms, as for `c1ccc(N(c2ccccc2)c2ccccc2)cc1` [Example 7, Triphenylamine], the figure is less than 100 mM.
